Data: ChEMBL document CHEMBL5370558, “Modifications of geldanamycin via CuAAC altering affinity to chaperone protein Hsp90 and cytotoxicity” (Eur J Med Chem, 2023)
Starred links: 1 amine or outer side, 2 acyl side, 3 side chain; linkers in the order of their positions; H or OH if unused. Positions of bridges follow the written chain, without caps; N, C: chain ends. Non-standard residues stand in square brackets, D forms with d. Residues, ends and D or L forms follow the SMILES beside them. Chains are numbered I, II in the order given. Actinocin(9to1) = Cc1c2oc3c(C)ccc(C(=O)[*:1])c3nc-2c(C(=O)[*:2])c(N)c1=O; NMeV = CN[C@H](C(=O)O)C(C)C; Sar = CNCC(=O)O

Assays:
[1] = system: SK-BR-3; assay: Anticancer activity against human SK-BR-3 cells assessed as cell growth inhibition incubated for 72 hrs by SRB assay; type: functional, cell-based; conditions: Homo sapiens, SK-BR-3, 72 h
[2] = system: SK-OV-3; assay: Anticancer activity against human SK-OV-3 cells assessed as cell growth inhibition incubated for 72 hrs by SRB assay; type: functional, cell-based; conditions: Homo sapiens, SK-OV-3, 72 h
[3] = system: PC-3; assay: Anticancer activity against human PC-3 cells assessed as cell growth inhibition incubated for 72 hrs by SRB assay; type: functional, cell-based; conditions: Homo sapiens, PC-3, 72 h
[4] = Cytotoxicity against human HDF cells assessed as cell growth inhibition incubated for 72 hrs by SRB assay; type: toxicity, cell-based; conditions: HDF cells (normal human dermal fibroblasts, NHDF)
[5] = biological target: Heat shock protein HSP 90-alpha (Homo sapiens) (UniProt P07900)
Description: Binding affinity to recombinant human HSP90alpha assessed as change in entropy by isothermal titration calorimetry assay

[6] = Selectivity index, ratio of IC50 for cytotoxicity against human HDF cells to IC50 for anticancer activity against human SK-BR-3 cells; type: toxicity, cell-based; conditions: HDF cells versus SK-BR-3 cells, read-out: Ratio IC50
[7] = Selectivity index, ratio of IC50 for cytotoxicity against human HDF cells to IC50 for anticancer activity against human SK-OV-3 cells; type: cell-based; conditions: HDF cells versus SK-OV-3 cells, read-out: Ratio IC50
[8] = Selectivity index, ratio of IC50 for cytotoxicity against human HDF cells to IC50 for anticancer activity against human PC-3 cells; type: toxicity, cell-based; conditions: HDF cells versus PC-3 cells, read-out: Ratio IC50

Structure (SMILES) | IC50 [1] [µM] | IC50 [2] [µM] | IC50 [3] [µM] | IC50 at 72 h [4] [µM] | TdeltaS [5] [kJ/mol] | selectivity ratio [6] | selectivity ratio [7] | selectivity ratio [8]
CO[C@H]1/C=C\C=C(/C)C(=O)NC2=CC(=O)C(NCc3cn(Cc4ccc(Cl)cc4)nn3)=C(C[C@@H](C)C[C@H](OC)[C@H](O)[C@@H](C)/C=C(\C)[C@@H]1OC(N)=O)C2=O | 0.24 | 0.23 | 0.23 | 0.44 | -3.6 |  |  | 
CO[C@H]1/C=C\C=C(/C)C(=O)NC2=CC(=O)C(NCc3cn([C@]4(C#N)O[C@H](COC(C)=O)[C@H](OC(C)=O)[C@H](OC(C)=O)[C@H]4OC(C)=O)nn3)=C(C[C@@H](C)C[C@H](OC)[C@H](O)[C@@H](C)/C=C(\C)[C@@H]1OC(N)=O)C2=O | 0.91 | 0.94 | 0.76 | 1.25 |  | 1.37 | 1.33 | 1.64
CO[C@H]1/C=C\C=C(/C)C(=O)NC2=CC(=O)C(NCc3cn(Cc4ccccc4I)nn3)=C(C[C@@H](C)C[C@H](OC)[C@H](O)[C@@H](C)/C=C(\C)[C@@H]1OC(N)=O)C2=O | 0.38 | 0.39 | 0.41 | 0.97 |  | 2.55 | 2.49 | 2.37
CO[C@H]1/C=C\C=C(/C)C(=O)NC2=CC(=O)C(NCCn3cc(-c4ccsc4)nn3)=C(C[C@@H](C)C[C@H](OC)[C@H](O)[C@@H](C)/C=C(\C)[C@@H]1OC(N)=O)C2=O | 0.93 | 0.94 | 0.99 | 2.07 |  | 2.23 | 2.2 | 2.09
CO[C@H]1/C=C\C=C(/C)C(=O)NC2=CC(=O)C(NCc3cn([C@@H]4O[C@H](COCc5ccccc5)[C@@H](OCc5ccccc5)[C@H](OCc5ccccc5)[C@H]4NC(C)=O)nn3)=C(C[C@@H](C)C[C@H](OC)[C@H](O)[C@@H](C)/C=C(\C)[C@@H]1OC(N)=O)C2=O | 0.77 | 0.79 | 0.93 | 1.51 |  | 1.96 | 1.91 | 1.62
CO[C@H]1/C=C\C=C(/C)C(=O)NC2=CC(=O)C(NCc3cn(CC4CCOCC4)nn3)=C(C[C@@H](C)C[C@H](OC)[C@H](O)[C@@H](C)/C=C(\C)[C@@H]1OC(N)=O)C2=O | 0.96 | 0.92 | 0.97 | 1.84 |  | 1.92 | 2 | 1.9
CO[C@H]1/C=C\C=C(/C)C(=O)NC2=CC(=O)C(NCc3cn(Cc4ccc(C(F)(F)F)cc4)nn3)=C(C[C@@H](C)C[C@H](OC)[C@H](O)[C@@H](C)/C=C(\C)[C@@H]1OC(N)=O)C2=O | 0.79 | 0.91 | 0.8 | 1.24 |  | 1.57 | 1.36 | 1.55
Cc1c2oc3c(C)ccc(C(=O)N[C@@H]4C(=O)N[C@H](C(C)C)C(=O)N5CCC[C@H]5C(=O)N(C)CC(=O)N(C)[C@@H](C(C)C)C(=O)O[C@@H]4C)c3nc-2c(C(=O)N[C@@H]2C(=O)N[C@H](C(C)C)C(=O)N3CCC[C@H]3C(=O)N(C)CC(=O)N(C)[C@@H](C(C)C)C(=O)O[C@@H]2C)c(N)c1=O [DACTINOMYCIN] (I: T[dV]P[Sar][NMeV] / II: T[dV]P[Sar][NMeV]; ester I:1-I:C, II:1-II:C; linker I:N-II:N via Actinocin(9to1)) | 0.68 | 0.62 | 0.71 | 1.63 |  | 2.4 | 2.63 | 2.3
CO[C@H]1/C=C\C=C(/C)C(=O)NC2=CC(=O)C(NCc3cn([C@@H]4O[C@H](CO)[C@@H](O)[C@H](O)[C@H]4NC(C)=O)nn3)=C(C[C@@H](C)C[C@H](OC)[C@H](O)[C@@H](C)/C=C(\C)[C@@H]1OC(N)=O)C2=O | 1.75 | 1.86 | 1.84 | 2.13 |  | 1.85 | 1.15 | 1.16
CO[C@H]1/C=C\C=C(/C)C(=O)NC2=CC(=O)C(NCc3cn(Cc4cccc(C#N)c4)nn3)=C(C[C@@H](C)C[C@H](OC)[C@H](O)[C@@H](C)/C=C(\C)[C@@H]1OC(N)=O)C2=O | 4.51 | 4.6 | 4.51 | 7.44 |  | 1.65 | 1.62 | 1.65
CO[C@H]1/C=C\C=C(/C)C(=O)NC2=CC(=O)C(NCc3cn(Cc4ccc(Br)cc4)nn3)=C(C[C@@H](C)C[C@H](OC)[C@H](O)[C@@H](C)/C=C(\C)[C@@H]1OC(N)=O)C2=O | 0.37 | 0.27 | 0.31 | 0.65 |  | 1.76 | 2.41 | 2.1
CO[C@H]1/C=C\C=C(/C)C(=O)NC2=CC(=O)C(NCc3c[nH]nn3)=C(C[C@@H](C)C[C@H](OC)[C@H](O)[C@@H](C)/C=C(\C)[C@@H]1OC(N)=O)C2=O | 0.73 | 0.69 | 0.69 | 1.77 |  | 2.42 | 2.57 | 2.57
CO[C@H]1/C=C\C=C(/C)C(=O)NC2=CC(=O)C(NCc3cn(C/C=C/c4ccccc4)nn3)=C(C[C@@H](C)C[C@H](OC)[C@H](O)[C@@H](C)/C=C(\C)[C@@H]1OC(N)=O)C2=O | 1.16 | 1.08 | 1.11 | 3.38 | -3.7 |  |  | 
CO[C@H]1/C=C\C=C(/C)C(=O)NC2=CC(=O)C(NCc3cn(Cc4ccc(C)cc4)nn3)=C(C[C@@H](C)C[C@H](OC)[C@H](O)[C@@H](C)/C=C(\C)[C@@H]1OC(N)=O)C2=O | 0.99 | 0.82 | 0.85 | 1.17 |  | 1.18 | 1.43 | 1.38
CO[C@H]1/C=C\C=C(/C)C(=O)NC2=CC(=O)C(NCc3cn(CCCOS(=O)(=O)c4ccc(C)cc4)nn3)=C(C[C@@H](C)C[C@H](OC)[C@H](O)[C@@H](C)/C=C(\C)[C@@H]1OC(N)=O)C2=O | 0.44 | 0.45 | 0.46 | 0.44 | 5.9 |  |  | 
